# Test results: patent US12162892B2, “CD16a binding agents and uses thereof” (KLEO PHARMACEUTICALS, INC., priority 2018, dated 2024)
# “And” between values parts separate entries of the source, which are not always exact repeats. Equal entries are not always repeated.
# Legend:
# Type in all cases: binding
# CD16a158V [1] = assay: NHS-Ester ELISA Assay; conditions: NHS-Ester ligands 250 μM; 10 nM biotinylated CD16a protein
# Experimental: (§1) Pretreat ELISA plates (Costar 3922) using 200 μl […] (BSA, Heat Shock, Fraction V-American Bio AB01088-00100) in PBS for 2 hours at 25° C. with moderate shaking. BSA was removed and plates were washed. NHS-Ester ligands were diluted in PBS to 250 μM then added (100 μl/well) and incubated for 1 hour at 37° C. […] Plates are removed from the incubator and washed. CD16a/Streptavidin.HRP mixture was added to the plates (100 μl/well) and incubated for 1 hour at 25° C. with gentle shaking. Wash plates. Substrate (Super Signal ELISA Pico Chemiluminescent Substrate-Thermo 37069) was added (100 μl/well) and plates were incubated for 5 minutes at 25° C. with gentle shaking. Luminescence was then measured on the Biotek Synergy H1 microplate reader.
# CD16a158F [2] = molecular target: T1, CD16a158F (Homo sapiens, UniProt P08637); assay: NHS-Ester ELISA Assay; set-up: purchased Acro Biosystems CDA-H82E8; conditions: NHS-Ester ligands 250 μM; 10 nM biotinylated CD16a protein
# Experimental: as §1
# [3] = Biotin ELISA, No Protein (Example 55); conditions: three replicate values per compound
# Experimental: (§2) Coat ELISA plates (Costar 3922) using Neutravidin (Thermo 31000) at 5 μg/ml (100 μl/well) for 1 hour at 37° C. Plates were washed 4 times with PBST (PBS, 0.05% Tween 20-200 μl, 1 minute/wash) then blocked using 200 μl 5% bovine serum albumin (BSA, Heat Shock, Fraction V-American Bio AB01088-00100) in PBST for 2 hours at 25° C. with moderate shaking. BSA was removed and plates were washed. Biotinylated ligands diluted in PBSTB (PBST+0.1% BSA) were then added (100 μl/well) and incubated for 1 hour at 25° C. with gentle shaking. Ligands were removed and plates were washed. Any remaining unoccupied neutravidin binding sites were blocked by adding 100 μM Biotin (Fisher BP232-1) (100 μl/well) and incubated for 1 hour at 25° C. with gentle shaking. Plates were then washed. […] Protein was removed and plates were washed. Streptavidin-HRP (Invitrogen 434323) diluted 1:5000 in PBSTB was added (100 μl/well) and incubated for 1 hour at 25° C. with gentle shaking. Wash plates. Substrate (Super Signal ELISA Pico Chemiluminescent Substrate-Thermo 37069) was added (100 μl/well) and plates were incubated for 5 minutes at 25° C. with gentle shaking. Luminescence was then measured on the Biotek Synergy H1 microplate reader.
# (§3) Using similar methods as Examples 47 or 53, interactions with a number of receptors were measured. In some embodiments, “stock” is antibody only, and “control” is an antibody that went through the same procedure except using DMSO only as opposed to a compound. When contacted with targeting moieties such as antibodies in the Examples, compounds, e.g., I-95, I-96, etc. can react through their reactive groups
# CD32a-R167 = assay: Biotin ELISA, interaction with various receptors (Example 55); conditions: three replicate values per compound
# Experimental: as §2, §3
# CD16a158V [4] = molecular target: T2, CD16a158V (Homo sapiens, UniProt P08637, F176V); assay: as above; conditions: three replicate values per compound
# Experimental: as §2, §3
# CD3ed = CD3ed (Homo sapiens, UniProt P04234+P07766); assay: as above; conditions: three replicate values per compound
# Experimental: as §2, §3
# CD16a158F [5] = molecular target: T1, CD16a158F; assay: as above; conditions: three replicate values per compound
# Experimental: as §2, §3
# CD32b = molecular target: T3, CD32b (Homo sapiens, UniProt P31994); assay: as above; conditions: three replicate values per compound
# T3 sequence (P31994 43-310): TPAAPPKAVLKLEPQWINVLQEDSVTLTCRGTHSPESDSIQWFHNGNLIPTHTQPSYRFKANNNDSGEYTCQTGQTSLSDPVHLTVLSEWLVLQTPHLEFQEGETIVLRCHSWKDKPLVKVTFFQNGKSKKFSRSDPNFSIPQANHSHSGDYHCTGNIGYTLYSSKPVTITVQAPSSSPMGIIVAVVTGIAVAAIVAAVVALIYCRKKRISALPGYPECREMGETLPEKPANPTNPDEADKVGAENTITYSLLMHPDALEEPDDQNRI
# Experimental: as §2, §3
# CD64 = CD64 (Homo sapiens, UniProt P12314); assay: as above; conditions: three replicate values per compound
# Experimental: as §2, §3
# CD32a H167 = molecular target: T4, CD32a H167 (Homo sapiens, UniProt P12318); assay: as above; conditions: three replicate values per compound
# T4 sequence (P12318 36-218 limits assumed): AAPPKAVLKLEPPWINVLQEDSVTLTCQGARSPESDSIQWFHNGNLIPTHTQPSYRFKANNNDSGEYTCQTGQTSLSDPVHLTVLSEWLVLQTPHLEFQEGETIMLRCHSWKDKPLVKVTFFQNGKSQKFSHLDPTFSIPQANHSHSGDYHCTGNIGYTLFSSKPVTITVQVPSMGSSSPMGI
# Experimental: as §2, §3
# CD16a158V [6] = molecular target: T2, CD16a158V; assay: Biotinylated Ligand ELISA Assay; conditions: Biotinylated CD16a protein at 10 nM
# Experimental: as §2
# CD16a158F [7] = molecular target: T1, CD16a158F; assay: Biotinylated Ligand ELISA Assay; set-up: purchased Acro Biosystems CDA-H82E8; conditions: Biotinylated CD16a protein at 10 nM
# Experimental: as §2
# CD16a158V [8] = molecular target: T2, CD16a158V; assay: Microscale Thermophoresis; conditions: read-out: MST-CD16a158V KD
# Experimental: Target proteins (poly-histidine tagged, 600 nM) were fluorescently labeled combination with an equal volume of dye (200 nM, His-Tag labeling kit RED-tris-NTA NanoTemper: MO-L008) PBST. The mixture rotated in the dark for 45 min before being spun down at 12000 rpm for 15 min to remove uncomplexed material. The fluorescence of the removed supernatant was adjusted to for a test concentration of 40-80 nM (2× the final measured). Test ligands were prepared across a 12-point dilution series in a 96-well PCR plate at a volume of 20 uL at 2× the concentration desired for testing (0.2% BSA in PBST). The dilution series was then combined with an equal volume of the labeled target at 2× the concentration desired for testing. Capillaries were added to the wells of the combined target/ligand complex and measured by MST. Measurements were taken using a Nanotemper Monolith NT.115, and the data was analyzed using NanoTemper MO.Control software.
# CD3ed, sequence (P07766 23-126 limits assumed): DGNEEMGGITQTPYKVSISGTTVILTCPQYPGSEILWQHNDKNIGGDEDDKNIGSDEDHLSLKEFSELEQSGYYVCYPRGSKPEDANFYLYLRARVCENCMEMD
# CD3ed, sequence (P04234 22-105 limits assumed): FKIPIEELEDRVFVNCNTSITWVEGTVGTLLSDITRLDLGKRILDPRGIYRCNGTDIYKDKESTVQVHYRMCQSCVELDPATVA
# T1 sequence (P08637 17-208 limits assumed): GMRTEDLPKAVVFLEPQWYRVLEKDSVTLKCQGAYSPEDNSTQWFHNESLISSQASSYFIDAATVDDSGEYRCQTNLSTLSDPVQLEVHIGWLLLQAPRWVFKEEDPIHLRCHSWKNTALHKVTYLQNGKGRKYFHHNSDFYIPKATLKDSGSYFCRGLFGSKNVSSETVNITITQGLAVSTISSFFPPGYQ
# T2 sequence (P08637 17-208 F176V): as the sequence (P08637 17-208 limits assumed) above, with F160V counted along it
# CD64, sequence (P12314 16-374): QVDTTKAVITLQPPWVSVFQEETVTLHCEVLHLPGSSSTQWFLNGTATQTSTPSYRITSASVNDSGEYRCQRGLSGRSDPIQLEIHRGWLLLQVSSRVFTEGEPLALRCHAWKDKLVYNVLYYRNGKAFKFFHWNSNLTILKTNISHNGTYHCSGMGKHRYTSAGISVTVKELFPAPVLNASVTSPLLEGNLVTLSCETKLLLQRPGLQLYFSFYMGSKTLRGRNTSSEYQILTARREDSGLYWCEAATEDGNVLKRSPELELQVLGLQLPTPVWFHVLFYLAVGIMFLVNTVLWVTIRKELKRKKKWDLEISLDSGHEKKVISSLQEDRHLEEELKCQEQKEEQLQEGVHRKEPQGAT
Kd (CD16a158V [8]) [nM],Compound,NHS ester ELISA-CD16a158V Binding (RLU) (CD16a158V [1]),NHS ester ELISA-CD16a158F Binding (RLU) (CD16a158F [2]),further results
,COc1ccc(OC)c(N2C(=O)NC3(CCN(C(=O)Nc4cccc(-c5cn(CCOCCOCCOCCOCCOCCOCCOCCOCCOCCOCCOCCOCCC(=O)ON6C(=O)CCC6=O)nn5)c4)CC3)C2=O)c1 [Compound I-1],"C (a relative luminescence value (RLU) of 1,000-10,000)","B (a relative luminescence value (RLU) of 10,000-100,000)",
,O=C(CCOCCOCCOCCOCCOCCOCCOCCOCCOCCOCCOCCOCCn1cc(-c2ccc(NC(=O)N3CCC4(CC3)NC(=O)N(Cc3ccccc3)C4=O)cc2)nn1)ON1C(=O)CCC1=O [Compound I-2],"C (a relative luminescence value (RLU) of 1,000-10,000)","B (a relative luminescence value (RLU) of 10,000-100,000)",
,O=C(CCOCCOCCOCCOCCOCCOCCOCCOCCOCCOCCOCCOCCn1cc(-c2cccc(-c3cnc(N4CCC5(CC4)NC(=O)N(Cc4ccccc4)C5=O)nc3)c2)nn1)ON1C(=O)CCC1=O [Compound I-6],"B (a relative luminescence value (RLU) of 10,000-100,000)","B (a relative luminescence value (RLU) of 10,000-100,000)",
,O=C(CCOCCOCCOCCOCCOCCOCCOCCOCCOCCOCCOCCOCCn1cc(-c2cnc(N3CCC4(CC3)NC(=O)N(Cc3ccccc3)C4=O)nc2)nn1)ON1C(=O)CCC1=O [Compound I-7],"B (a relative luminescence value (RLU) of 10,000-100,000)","C (a relative luminescence value (RLU) of 1,000-10,000)",
,O=C(CCOCCOCCOCCOCCOCCOCCOCCOCCOCCOCCOCCOCCNC(=O)c1cnc(N2CCC3(CC2)NC(=O)N(Cc2ccccc2)C3=O)nc1)ON1C(=O)CCC1=O [Compound I-8],"B (a relative luminescence value (RLU) of 10,000-100,000)","C (a relative luminescence value (RLU) of 1,000-10,000)",
,O=C(CCOCCOCCOCCOCCOCCOCCOCCOCCOCCOCCOCCOCCn1cc(-c2cccc(NC(=O)N3CCC4(CC3)NC(=O)N(c3ccccc3)C4=O)c2)nn1)ON1C(=O)CCC1=O [Compound I-9],"B (a relative luminescence value (RLU) of 10,000-100,000)","B (a relative luminescence value (RLU) of 10,000-100,000)",
,"O=C(CCCC[C@@H]1SC[C@@H]2NC(=O)N[C@@H]21)NCCOCCOCCOCCOCCOCCOCCOCCOCCNC(=O)c1cnc(N2CCC3(CC2)NC(=O)N(c2ccccc2)C3=O)s1 [Compound I-13, 5-[(3aS,4S,6aR)-2-oxo-hexahydro-1H-thieno[3,4-d]imidazol-4-yl]-N-{26-[(2-{2,4-dioxo-3-phenyl-1,3,8-triazaspiro[4.5]decan-8-yl}-1,3-thiazol-5-yl)formamido]-3,6,9,12,15,18,21,24-octaoxahexacosan-1-yl}pentanamide]",,,Biotin ELISA Results No Protein [3]: 6804 and 19233 and 14386; Biotin ELISA Results CD32a-R167 (CD32a-R167): 8032 and 6483 and 10638; Biotin ELISA Results CD16a-158V (CD16a158V [4]): 4673 and 4920 and 4565; Biotin ELISA Results CD3ed (CD3ed): 4252 and 15476 and 72836*; Biotin ELISA Results CD16a-158F (CD16a158F [5]): 10817 and 15276 and 9605; Biotin ELISA Results CD32b (CD32b): 7721 and 7105 and 9481; Biotin ELISA Results CD64 (CD64): 45845 and 36876 and 49943; Biotin ELISA Results CD32a-H167 (CD32a H167): 15516 and 14898 and 8681
,O=C(CCCC[C@@H]1SC[C@@H]2NC(=O)N[C@@H]21)NCCOCCOCCOCCOCCOCCOCCOCCOCCNC(=O)c1ccc(S(=O)(=O)N2CCC3(CC2)NC(=O)N(c2ccccc2)C3=O)cc1 [Compound I-22],,,"Biotinylated Ligand ELISA-CD16a158V Binding (RLU) (CD16a158V [6]): B (a relative luminescence value (RLU) of 10,000-100,000); Biotinylated Ligand ELISA-CD16a158F Binding (RLU) (CD16a158F [7]): B (a relative luminescence value (RLU) of 10,000-100,000)"
,COc1ccc(OC)c(N2CC(C(=O)Nc3ccc(-c4cn(CCOCCOCCOCCOCCOCCOCCOCCOCCOCCOCCOCCOCCC(=O)ON5C(=O)CCC5=O)nn4)cc3)CC2=O)c1 (stereo not drawn) [Compound I-25],"C (a relative luminescence value (RLU) of 1,000-10,000)","C (a relative luminescence value (RLU) of 1,000-10,000)",
,COc1ccc(OC)c(N2CC(C(=O)Nc3ccc(-c4cn(CCOCCOCCOCCOCCOCCOCCOCCOCCC(=O)ON5C(=O)CCC5=O)nn4)cc3)CC2=O)c1 (stereo not drawn) [Compound I-26],"C (a relative luminescence value (RLU) of 1,000-10,000)","C (a relative luminescence value (RLU) of 1,000-10,000)",
100 to 500,COc1ccc(N2CC(C(=O)Nc3ccc(-c4cn(CCOCCOCCOCCOCCOCCOCCOCCOCCNC(=O)CCCC[C@@H]5SC[C@@H]6NC(=O)N[C@@H]65)nn4)cc3)CC2=O)cc1 (stereo partly drawn) [Compound I-33],,,
100 to 500,COc1cccc(N2CC(C(=O)Nc3ccc(-c4cn(CCOCCOCCOCCOCCOCCOCCOCCOCCNC(=O)CCCC[C@@H]5SC[C@@H]6NC(=O)N[C@@H]65)nn4)cc3)CC2=O)c1 (stereo partly drawn) [Compound I-34],,,
100 to 500,COc1ccccc1N1CC(C(=O)Nc2ccc(-c3cn(CCOCCOCCOCCOCCOCCOCCOCCOCCNC(=O)CCCC[C@@H]4SC[C@@H]5NC(=O)N[C@@H]54)nn3)cc2)CC1=O (stereo partly drawn) [Compound I-35],,,
500 to 1000,CCOc1ccc(N2CC(C(=O)N3CCC(C(=O)NCCOCCOCCOCCOCCOCCOCCOCCOCCNC(=O)CCCC[C@@H]4SC[C@@H]5NC(=O)N[C@@H]54)CC3)CC2=O)cc1 (stereo partly drawn) [Compound I-37],,,
100 to 500,COc1ccc(OC)c(N2CC(C(=O)Nc3ccc(Cn4cnc(CCOCCOCCOCCOCCOCCOCCOCCOCCNC(=O)CCCC[C@@H]5SC[C@@H]6NC(=O)N[C@@H]65)n4)cc3)CC2=O)c1 (stereo partly drawn) [Compound I-38],,,
100 to 500,COc1ccc(OC)c(N2CC(C(=O)Nc3cccc(-c4cn(CCOCCOCCOCCOCCOCCOCCOCCOCCNC(=O)CCCC[C@@H]5SC[C@@H]6NC(=O)N[C@@H]65)nn4)c3)CC2=O)c1 (stereo partly drawn) [Compound I-40],,,
500 to 1000,COc1ccc(OC)c(N2CC(C(=O)Nc3ccc(CC4N=NC(COCCOCCOCCOCCOCCOCCOCCOCCNC(=O)CCCC[C@@H]5SC[C@@H]6NC(=O)N[C@@H]65)=N4)cc3)CC2=O)c1 (stereo partly drawn) [Compound I-41],,,
